Tests used:
[1] = human
[2] = human; remark: listed apart in the source
[3] = Times to onset, minimal and maximal, observed in the indexed observations. [column 'DELAI' in source]; settings: human
[4] = Highest frequency of moderate liver toxicity observed during clinical trials, expressed as a percentage. [column '% BIOL' in source]; settings: human
[5] = human; remark: listed apart in the source
[6] = human; remark: listed apart in the source
[7] = human; remark: listed apart in the source
[8] = human, serum
[9] = Comments (NB not yet translated). [column 'COMMENTAIRES' in source]; settings: human
[10] = human, serum, 4383 h
[11] = human; remark: listed apart in the source
[12] = human, serum; remark: listed apart in the source
[13] = human; remark: listed apart in the source
[14] = human; remark: listed apart in the source
[15] = human; remark: listed apart in the source
[16] = Highest frequency of acute liver toxicity observed during clinical trials, expressed as a percentage. [column '% AIGUE' in source]; settings: human
[17] = human; remark: listed apart in the source
[18] = Proposed mechanism(s) of liver damage. [column 'MEC' in source]; settings: human
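Throughout, for Hepatotoxicity (association with vascular disease): count of indexed literature references reporting vascular liver injury in humans, e.g. peliosis hepatitis, hepatic veno-occlusive disease or Budd-Chiari syndrome.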
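Throughout, for Hepatotoxicity (benign tumour): value is a count of indexed literature references citing a benign tumour confirmed by histopathology.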
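Throughout, for Hepatotoxicity (choleostasis): human cholestatic liver injury, shown by histopathology or by peak ALT or AST elevation over alkaline phosphatase ratio below 2, value counts indexed literature reports.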
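Throughout, for Hepatotoxicity (chronic liver disease): chronic liver injury confirmed by histopathology or persistently raised serum aminotransferase activity beyond 6 months, value given as the count of indexed literature references.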
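Throughout, for Hepatotoxicity (cirrhosis): value is a count of indexed literature references reporting cirrhosis confirmed by histopathology.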
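Throughout, for Hepatotoxicity (cytolytic): human cytolytic liver injury, shown by histopathology or by a ratio above 5 of peak ALT or AST elevation to alkaline phosphatase elevation, value counts indexed references.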
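Throughout, for Hepatotoxicity (granulomatous hepatitis): value is a count of indexed literature references reporting granulomatous liver disease confirmed by histopathology.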
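Throughout, for Hepatotoxicity (malignant tumour): malignant tumour confirmed by histopathology, value gives the count of indexed literature references reporting it.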
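Throughout, for Hepatotoxicity (severe hepatitis): human clinical data: severe hepatitis, meaning potentially life-threatening liver failure or clinically observed cases, the value counts how many indexed literature references report it.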
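Throughout, for Hepatotoxicity (steatosis): steatosis confirmed by histopathology, value is the count of indexed references.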

In the case of `CCOC(=O)C(C)(C)Oc1ccc(Cl)cc1` [CLOFIBRATE], the “Hepatotoxicity (steatosis)” value [1] is reported as 1, the “Hepatotoxicity (granulomatous hepatitis)” value [2] is reported as 1 and the “Hepatotoxicity (time to onset)” value [3] is reported as 2 months - 7 years. The “Hepatotoxicity (moderate)” value [4] was 19.7%, the “Hepatotoxicity (malignant tumour)” value [5] was 0 and the “Hepatotoxicity (benign tumour)” value [6] was 1. The “Hepatotoxicity (animal toxicity known)” value [7] was “yes”, the “Hepatotoxicity (acute)” value [8] was 3 and the “Hepatotoxicity (comment)” value [9] was “RC/FENOFIBRATE”. The “Hepatotoxicity (chronic liver disease)” value [10] was 0, the “Hepatotoxicity (cirrhosis)” value [11] was 0 and the “Hepatotoxicity (moderate)” value [12] was 4. For the same molecule, the “Hepatotoxicity (severe hepatitis)” value [13] was 0, the “Hepatotoxicity (choleostasis)” value [14] was 1 and the “Hepatotoxicity (association with vascular disease)” value [15] was 0. For the same molecule, the “Hepatotoxicity (acute)” value [16] was 0% and the “Hepatotoxicity (cytolytic)” value [17] was 2.
For `CC[C@]1(O)C[C@@H]2CN(CCc3c([nH]c4ccccc34)[C@@](C(=O)OC)(c3cc4c(cc3OC)N(C)[C@H]3[C@@](O)(C(=O)OC)[C@H](OC(C)=O)[C@]5(CC)C=CCN6CC[C@]43[C@@H]65)C2)C1` [VINBLASTINE], the “Hepatotoxicity (steatosis)” value [1] was 0, the “Hepatotoxicity (granulomatous hepatitis)” value [2] was 0 and the “Hepatotoxicity (time to onset)” value [3] was 2 cures. For the same molecule, the “Hepatotoxicity (moderate)” value [4] was 22.6%, the “Hepatotoxicity (malignant tumour)” value [5] was 0 and the “Hepatotoxicity (benign tumour)” value [6] was 0. For the same molecule, the “Hepatotoxicity (animal toxicity known)” value [7] was “yes”, the “Hepatotoxicity (acute)” value [8] was 1 and the “Hepatotoxicity (comment)” value [9] was “I/DOXORUBICINE”. The “Hepatotoxicity (chronic liver disease)” value [10] was 0, the “Hepatotoxicity (cirrhosis)” value [11] was 0 and the “Hepatotoxicity (moderate)” value [12] was 5. For the same molecule, the “Hepatotoxicity (severe hepatitis)” value [13] was 0, the “Hepatotoxicity (choleostasis)” value [14] was 1 and the “Hepatotoxicity (association with vascular disease)” value [15] was 1. The “Hepatotoxicity (acute)” value [16] was 0% and the “Hepatotoxicity (cytolytic)” value [17] was 0.
For BLEOMYCIN, the “Hepatotoxicity (steatosis)” value [1] was 0, the “Hepatotoxicity (granulomatous hepatitis)” value [2] was 0 and the “Hepatotoxicity (moderate)” value [4] was 0%. For the same molecule, the “Hepatotoxicity (malignant tumour)” value [5] was 0, the “Hepatotoxicity (benign tumour)” value [6] was 0 and the “Hepatotoxicity (animal toxicity known)” value [7] was “yes”. The “Hepatotoxicity (acute)” value [8] was 0, the “Hepatotoxicity (comment)” value [9] was “HYPERBILIRUBINEMIE” and the “Hepatotoxicity (chronic liver disease)” value [10] was 0. For the same molecule, the “Hepatotoxicity (cirrhosis)” value [11] was 0, the “Hepatotoxicity (moderate)” value [12] was 1 and the “Hepatotoxicity (severe hepatitis)” value [13] was 0. The “Hepatotoxicity (choleostasis)” value [14] was 0, the “Hepatotoxicity (association with vascular disease)” value [15] was 0 and the “Hepatotoxicity (acute)” value [16] was 0%. The “Hepatotoxicity (cytolytic)” value [17] was 0.
With `CN(C)[C@@H]1C(O)=C(C(N)=O)C(=O)[C@@]2(O)C(O)=C3C(=O)c4c(O)cccc4[C@@](C)(O)[C@H]3C[C@@H]12` [TETRACYCLINE] the “Hepatotoxicity (steatosis)” value [1] was 22, the “Hepatotoxicity (granulomatous hepatitis)” value [2] was 0 and the “Hepatotoxicity (time to onset)” value [3] was 3 days - 2 months. For the same molecule, the “Hepatotoxicity (moderate)” value [4] was 6.3%, the “Hepatotoxicity (malignant tumour)” value [5] was 0 and the “Hepatotoxicity (benign tumour)” value [6] was 0. For the same molecule, the “Hepatotoxicity (animal toxicity known)” value [7] was “yes”, the “Hepatotoxicity (acute)” value [8] was 10 and the “Hepatotoxicity (comment)” value [9] was “CHOLESTASE_PROLONGEE DUCTOPENIE”. The “Hepatotoxicity (chronic liver disease)” value [10] was 1, the “Hepatotoxicity (cirrhosis)” value [11] was 0 and the “Hepatotoxicity (moderate)” value [12] was 1. For the same molecule, the “Hepatotoxicity (severe hepatitis)” value [13] was 7, the “Hepatotoxicity (choleostasis)” value [14] was 8 and the “Hepatotoxicity (association with vascular disease)” value [15] was 0. The “Hepatotoxicity (acute)” value [16] was 0% and the “Hepatotoxicity (cytolytic)” value [17] was 2.
In the case of `COc1cccc2c1C(=O)c1c(O)c3c(c(O)c1C2=O)C[C@@](O)(C(C)=O)C[C@@H]3O[C@H]1C[C@H](N)[C@H](O)[C@H](C)O1` [DAUNORUBICIN], the “Hepatotoxicity (steatosis)” value [1] is reported as 0, the “Hepatotoxicity (granulomatous hepatitis)” value [2] is reported as 0 and the “Hepatotoxicity (time to onset)” value [3] is reported as 3 cures. The “Hepatotoxicity (moderate)” value [4] was 68%, the “Hepatotoxicity (malignant tumour)” value [5] was 0 and the “Hepatotoxicity (benign tumour)” value [6] was 0. For the same molecule, the “Hepatotoxicity (animal toxicity known)” value [7] was “yes”, the “Hepatotoxicity (acute)” value [8] was 2 and the “Hepatotoxicity (comment)” value [9] was “I/THIOGUANINE”. For the same molecule, the “Hepatotoxicity (chronic liver disease)” value [10] was 0, the “Hepatotoxicity (cirrhosis)” value [11] was 0 and the “Hepatotoxicity (moderate)” value [12] was 3. The “Hepatotoxicity (severe hepatitis)” value [13] was 0, the “Hepatotoxicity (choleostasis)” value [14] was 0 and the “Hepatotoxicity (association with vascular disease)” value [15] was 2. The “Hepatotoxicity (acute)” value [16] was 0% and the “Hepatotoxicity (cytolytic)” value [17] was 2.
With `C=CC[C@@H]1/C=C(\C)C[C@H](C)C[C@H](OC)[C@H]2O[C@@](O)(C(=O)C(=O)N3CCCC[C@H]3C(=O)O[C@H](/C(C)=C/[C@@H]3CC[C@@H](O)[C@H](OC)C3)[C@H](C)[C@@H](O)CC1=O)[C@H](C)C[C@@H]2OC` [TACROLIMUS ANHYDROUS] the “Hepatotoxicity (steatosis)” value [1] was 0, the “Hepatotoxicity (granulomatous hepatitis)” value [2] was 0 and the “Hepatotoxicity (time to onset)” value [3] was 1 month - 3 months. For the same molecule, the “Hepatotoxicity (moderate)” value [4] was 37%, the “Hepatotoxicity (malignant tumour)” value [5] was 0 and the “Hepatotoxicity (benign tumour)” value [6] was 0. For the same molecule, the “Hepatotoxicity (animal toxicity known)” value [7] was “yes”, the “Hepatotoxicity (acute)” value [8] was 0 and the “Hepatotoxicity (comment)” value [9] was “MVO PELIOSE”. For the same molecule, the “Hepatotoxicity (chronic liver disease)” value [10] was 0, the “Hepatotoxicity (cirrhosis)” value [11] was 0 and the “Hepatotoxicity (moderate)” value [12] was 1. For the same molecule, the “Hepatotoxicity (severe hepatitis)” value [13] was 0, the “Hepatotoxicity (choleostasis)” value [14] was 0 and the “Hepatotoxicity (association with vascular disease)” value [15] was 2. For the same molecule, the “Hepatotoxicity (acute)” value [16] was 0% and the “Hepatotoxicity (cytolytic)” value [17] was 0.
For PARAFFIN, the “Hepatotoxicity (steatosis)” value [1] was 7, the “Hepatotoxicity (granulomatous hepatitis)” value [2] was 0 and the “Hepatotoxicity (time to onset)” value [3] was 10 years. The “Hepatotoxicity (moderate)” value [4] was 0%, the “Hepatotoxicity (malignant tumour)” value [5] was 0 and the “Hepatotoxicity (benign tumour)” value [6] was 0. The “Hepatotoxicity (animal toxicity known)” value [7] was “yes”, the “Hepatotoxicity (acute)” value [8] was 0 and the “Hepatotoxicity (comment)” value [9] was “LIPOGRANULOMES”. For the same molecule, the “Hepatotoxicity (chronic liver disease)” value [10] was 0, the “Hepatotoxicity (cirrhosis)” value [11] was 0 and the “Hepatotoxicity (moderate)” value [12] was 0. For the same molecule, the “Hepatotoxicity (severe hepatitis)” value [13] was 0, the “Hepatotoxicity (choleostasis)” value [14] was 0 and the “Hepatotoxicity (association with vascular disease)” value [15] was 0. The “Hepatotoxicity (acute)” value [16] was 0% and the “Hepatotoxicity (cytolytic)” value [17] was 0.
In the case of `CCCCNC(=O)NS(=O)(=O)c1ccc(N)cc1` [CARBUTAMIDE], the “Hepatotoxicity (steatosis)” value [1] is reported as 0, the “Hepatotoxicity (granulomatous hepatitis)” value [2] is reported as 0 and the “Hepatotoxicity (time to onset)” value [3] is reported as 2 weeks - 4 weeks. For the same molecule, the “Hepatotoxicity (moderate)” value [4] was 30%, the “Hepatotoxicity (malignant tumour)” value [5] was 0 and the “Hepatotoxicity (benign tumour)” value [6] was 0. The “Hepatotoxicity (animal toxicity known)” value [7] was “yes”, the “Hepatotoxicity (acute)” value [8] was 5 and the “Hepatotoxicity (comment)” value [9] was “RC/METAHEXAMIDE”. The “Hepatotoxicity (chronic liver disease)” value [10] was 0, the “Hepatotoxicity (cirrhosis)” value [11] was 0 and the “Hepatotoxicity (moderate)” value [12] was 1. For the same molecule, the “Hepatotoxicity (severe hepatitis)” value [13] was 3, the “Hepatotoxicity (choleostasis)” value [14] was 0 and the “Hepatotoxicity (association with vascular disease)” value [15] was 0. For the same molecule, the “Hepatotoxicity (acute)” value [16] was 1.5% and the “Hepatotoxicity (cytolytic)” value [17] was 1.
With `CCC[C@@H]1C[C@@H](C(=O)N[C@@H]([C@H]2O[C@H](SC)[C@H](O)[C@@H](O)[C@H]2O)[C@H](C)Cl)N(C)C1` [CLINDAMYCIN] the “Hepatotoxicity (steatosis)” value [1] was 0, the “Hepatotoxicity (granulomatous hepatitis)” value [2] was 1 and the “Hepatotoxicity (time to onset)” value [3] was 2 days - 17 days. For the same molecule, the “Hepatotoxicity (moderate)” value [4] was 52%, the “Hepatotoxicity (malignant tumour)” value [5] was 0 and the “Hepatotoxicity (benign tumour)” value [6] was 0. For the same molecule, the “Hepatotoxicity (animal toxicity known)” value [7] was “yes”, the “Hepatotoxicity (acute)” value [8] was 5 and the “Hepatotoxicity (comment)” value [9] was “#CBP”. The “Hepatotoxicity (chronic liver disease)” value [10] was 1, the “Hepatotoxicity (cirrhosis)” value [11] was 0 and the “Hepatotoxicity (moderate)” value [12] was 15. The “Hepatotoxicity (severe hepatitis)” value [13] was 0, the “Hepatotoxicity (choleostasis)” value [14] was 1 and the “Hepatotoxicity (acute)” value [16] was 0%. The “Hepatotoxicity (cytolytic)” value [17] was 2.
In the case of `Nc1ccc(/N=N/c2ccccc2)c(N)n1` [PHENAZOPYRIDINE], the “Hepatotoxicity (steatosis)” value [1] is reported as 0, the “Hepatotoxicity (granulomatous hepatitis)” value [2] is reported as 0 and the “Hepatotoxicity (time to onset)” value [3] is reported as 1 week. The “Hepatotoxicity (moderate)” value [4] was 0%, the “Hepatotoxicity (mechanism)” value [18] was “Allergic, Toxic Metabolite” and the “Hepatotoxicity (malignant tumour)” value [5] was 0. The “Hepatotoxicity (benign tumour)” value [6] was 0, the “Hepatotoxicity (animal toxicity known)” value [7] was “yes” and the “Hepatotoxicity (acute)” value [8] was 2. The “Hepatotoxicity (chronic liver disease)” value [10] was 0, the “Hepatotoxicity (cirrhosis)” value [11] was 0 and the “Hepatotoxicity (moderate)” value [12] was 4. The “Hepatotoxicity (severe hepatitis)” value [13] was 0, the “Hepatotoxicity (choleostasis)” value [14] was 2 and the “Hepatotoxicity (association with vascular disease)” value [15] was 0. For the same molecule, the “Hepatotoxicity (acute)” value [16] was 0% and the “Hepatotoxicity (cytolytic)” value [17] was 0.
In the case of `Cc1c(N(C)C)c(=O)n(-c2ccccc2)n1C` [AMINOPYRINE], the “Hepatotoxicity (steatosis)” value [1] is reported as 1, the “Hepatotoxicity (granulomatous hepatitis)” value [2] is reported as 0 and the “Hepatotoxicity (time to onset)” value [3] is reported as 3 months. For the same molecule, the “Hepatotoxicity (moderate)” value ([4]; Liver) was 0%, the “Hepatotoxicity (mechanism)” value [18] was “Dose-dependant” and the “Hepatotoxicity (malignant tumour)” value [5] was 0. The “Hepatotoxicity (benign tumour)” value [6] was 0, the “Hepatotoxicity (animal toxicity known)” value [7] was “yes” and the “Hepatotoxicity (acute)” value [8] was 6. The “Hepatotoxicity (chronic liver disease)” value [10] was 0, the “Hepatotoxicity (cirrhosis)” value [11] was 0 and the “Hepatotoxicity (moderate)” value [12] was 2. For the same molecule, the “Hepatotoxicity (severe hepatitis)” value ([13]; Liver) was 2, the “Hepatotoxicity (choleostasis)” value [14] was 1 and the “Hepatotoxicity (association with vascular disease)” value [15] was 0. For the same molecule, the “Hepatotoxicity (acute)” value ([16]; Liver) was 0% and the “Hepatotoxicity (cytolytic)” value [17] was 3.
In the case of `CCOc1ccc(NC(C)=O)cc1` [PHENACETIN], the “Hepatotoxicity (steatosis)” value [1] is reported as 1, the “Hepatotoxicity (granulomatous hepatitis)” value [2] is reported as 2 and the “Hepatotoxicity (time to onset)” value [3] is reported as 2 days - 2 years. For the same molecule, the “Hepatotoxicity (moderate)” value [4] was 0%, the “Hepatotoxicity (mechanism)” value [18] was “Dose-dependant” and the “Hepatotoxicity (malignant tumour)” value [5] was 0. The “Hepatotoxicity (benign tumour)” value [6] was 0, the “Hepatotoxicity (animal toxicity known)” value [7] was “yes” and the “Hepatotoxicity (acute)” value [8] was 4. The “Hepatotoxicity (chronic liver disease)” value [10] was 0, the “Hepatotoxicity (cirrhosis)” value [11] was 0 and the “Hepatotoxicity (moderate)” value [12] was 2. The “Hepatotoxicity (severe hepatitis)” value [13] was 0, the “Hepatotoxicity (choleostasis)” value [14] was 0 and the “Hepatotoxicity (association with vascular disease)” value [15] was 0. For the same molecule, the “Hepatotoxicity (acute)” value [16] was 0% and the “Hepatotoxicity (cytolytic)” value [17] was 0.
